Test results taken from US10259810B2, “N-sulfonylated pyrazolo[3,4-b]pyridin-6-carboxamides and method of use” (AbbVie S.à.r.l., priority 2015, dated 2019).

Assays:
ΔF508-CFTR [1] = molecular target: T1, ΔF508-CFTR (Homo sapiens, UniProt P13569, DEL508-508); assay: CFTR cell surface levels using HRP-tagged ΔF508-CFTR expressing CFBE cells, in the presence of a co-corrector; assay type: cell-based
T1 construct: host or cells: CFBE41o-, doxycycline-inducible
In short: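 Chemiluminescent read-out of surface HRP (15 min, dark) after PBS washes. Activity is normalized as 100×(sample−DMSO)/(3 μM co-corrector alone−DMSO).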

ΔF508-CFTR [2] = molecular target: T1, ΔF508-CFTR; assay: CFTR cell surface levels using HRP-tagged ΔF508-CFTR expressing CFBE cells, intrinsic corrector capacity; assay type: cell-based; design: % Activation: concentration or dose not given beside the values
In short: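 Read-out: chemiluminescent HRP activity of ECL4-HRP-tagged ΔF508-CFTR at the cell surface, 15 min substrate in dark. Normalized as 100×(sample−DMSO)/(positive control−DMSO).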

[3] = HRP-tagged ΔF508-CFTR CFBE cells, in the presence of 3 μM co-corrector
[4] = HRP-tagged ΔF508-CFTR CFBE cells, in the presence of 3 μM co-corrector, read-out: EC50
[5] = HRP-tagged ΔF508-CFTR expressing CFBE41o- cells, compound alone (intrinsic corrector capacity), 20 hours at 33° C.
[6] = HRP-tagged ΔF508-CFTR expressing CFBE41o- cells, compound alone (intrinsic corrector capacity), 20 hours at 33° C., read-out: EC50

T1 sequence (P13569 with tags, fused parts or gaps DEL508-508): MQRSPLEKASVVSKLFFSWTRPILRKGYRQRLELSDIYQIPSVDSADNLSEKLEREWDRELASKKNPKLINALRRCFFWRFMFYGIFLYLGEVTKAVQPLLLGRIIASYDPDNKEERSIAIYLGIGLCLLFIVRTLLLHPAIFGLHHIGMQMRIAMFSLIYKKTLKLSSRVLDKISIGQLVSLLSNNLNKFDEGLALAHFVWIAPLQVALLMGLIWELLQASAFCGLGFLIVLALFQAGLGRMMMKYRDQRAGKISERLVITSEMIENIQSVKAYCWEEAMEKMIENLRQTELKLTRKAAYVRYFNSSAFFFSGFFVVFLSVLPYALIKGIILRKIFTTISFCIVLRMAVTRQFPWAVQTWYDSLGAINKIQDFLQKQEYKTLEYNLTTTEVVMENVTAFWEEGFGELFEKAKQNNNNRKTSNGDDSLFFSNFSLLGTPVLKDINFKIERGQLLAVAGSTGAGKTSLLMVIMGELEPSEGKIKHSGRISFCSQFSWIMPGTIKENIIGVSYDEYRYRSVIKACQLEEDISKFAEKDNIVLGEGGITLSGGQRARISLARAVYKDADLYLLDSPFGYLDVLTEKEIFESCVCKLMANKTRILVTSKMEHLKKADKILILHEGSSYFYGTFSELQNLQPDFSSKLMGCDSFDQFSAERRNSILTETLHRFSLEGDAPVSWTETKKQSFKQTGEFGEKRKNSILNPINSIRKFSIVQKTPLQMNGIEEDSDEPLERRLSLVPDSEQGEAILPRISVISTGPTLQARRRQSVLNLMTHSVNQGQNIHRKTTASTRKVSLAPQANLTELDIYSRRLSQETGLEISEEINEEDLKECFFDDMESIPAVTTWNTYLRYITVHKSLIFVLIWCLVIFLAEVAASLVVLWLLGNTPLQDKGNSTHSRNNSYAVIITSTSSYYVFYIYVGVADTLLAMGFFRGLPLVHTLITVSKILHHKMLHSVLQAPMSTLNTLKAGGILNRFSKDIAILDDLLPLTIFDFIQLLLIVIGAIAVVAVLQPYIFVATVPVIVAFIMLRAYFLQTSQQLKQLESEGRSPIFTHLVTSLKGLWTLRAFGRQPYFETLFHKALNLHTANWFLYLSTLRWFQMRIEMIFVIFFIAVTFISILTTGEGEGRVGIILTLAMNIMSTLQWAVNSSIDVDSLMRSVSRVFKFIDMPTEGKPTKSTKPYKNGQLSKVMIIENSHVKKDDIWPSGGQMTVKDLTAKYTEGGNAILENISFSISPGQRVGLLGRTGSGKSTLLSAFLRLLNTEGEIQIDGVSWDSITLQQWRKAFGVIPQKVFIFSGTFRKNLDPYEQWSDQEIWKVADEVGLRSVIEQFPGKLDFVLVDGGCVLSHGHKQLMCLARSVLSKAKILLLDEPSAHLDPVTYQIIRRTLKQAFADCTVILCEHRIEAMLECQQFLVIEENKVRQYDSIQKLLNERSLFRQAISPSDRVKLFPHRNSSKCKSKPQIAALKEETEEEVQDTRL

Row | Compound | % Activation (ΔF508-CFTR [1]; [3]) [%] | EC50 (ΔF508-CFTR [1]; [4]) [nM] | % Activation (ΔF508-CFTR [2]; [5]) [%] | EC50 (ΔF508-CFTR [2]; [6]) [nM] | EC50 (ΔF508-CFTR [1]) [nM] | EC50 (ΔF508-CFTR [2]) [nM]
1 | COCC1CCN(c2cc(C(=O)NS(C)(=O)=O)nc3c2c(C(C)C)nn3-c2ccc(=O)n(C)n2)CC1 [Compound 268, N-(methanesulfonyl)-4-[4-(methoxymethyl)piperidin-1-yl]-1-(1-methyl-6-oxo-1,6-dihydropyridazin-3-yl)-3-(propan-2-yl)-1H-pyrazolo[3,4-b]pyridine-6-carboxamide] | 122.05 | > 10000 | 5.213 | > 10000 |  | 
2 | O=C(NS(=O)(=O)N1CCC(N2CCCCC2)CC1)c1cc(N2CCC(N3CCOCC3)CC2)c2c(C3CCC3)nn(-c3ccccc3)c2n1 [Compound 453, N-([1,4'-bipiperidine]-1'-sulfonyl)-3-cyclobutyl-4-[4-(morpholin-4-yl)piperidin-1-yl]-1-phenyl-1H-pyrazolo[3,4-b]pyridine-6-carboxamide] | 385.1 | 319 | 149.3 | 403 |  | 
3 | CC(C)c1nn(-c2ccc(F)cc2)c2nc(C(=O)NS(C)(=O)=O)cc(OCC3(C)CC(F)(F)C3)c12 [Compound 306, 4-[(3,3-difluoro-1-methylcyclobutyl)methoxy]-1-(4-fluorophenyl)-N-(methanesulfonyl)-3-(propan-2-yl)-1H-pyrazolo[3,4-b]pyridine-6-carboxamide] | 321.1 | 82.4 | 146.7 | 158 |  | 
4 | COCC1CCN(c2cc(C(=O)NS(=O)(=O)CCC(=O)N(C)C)nc3c2c(C2CCC2)nn3-c2ccccc2)CC1 [Compound 298, 3-cyclobutyl-N-[3-(dimethylamino)-3-oxopropane-1-sulfonyl]-4-[4-(methoxymethyl)piperidin-1-yl]-1-phenyl-1H-pyrazolo[3,4-b]pyridine-6-carboxamide] | 481.2 | 81 | 312.9 | 282 |  | 
5 | CS(=O)(=O)NC(=O)c1cc(OCC2CCCO2)c2c(C3CCC3)nn(-c3ccccc3)c2n1 (centres unmarked) [Compound 283, 3-cyclobutyl-N-(methanesulfonyl)-4-[(oxolan-2-yl)methoxy]-1-phenyl-1H-pyrazolo[3,4-b]pyridine-6-carboxamide] | 326.85 | 265 | 141.2 | 477 |  | 
6 | CS(=O)(=O)NC(=O)c1cc(N2CCC(O)(CC#N)CC2)c2c(C3CCC3)nn(-c3ccccc3)c2n1 [Compound 326, 4-[4-(cyanomethyl)-4-hydroxypiperidin-1-yl]-3-cyclobutyl-N-(methanesulfonyl)-1-phenyl-1H-pyrazolo[3,4-b]pyridine-6-carboxamide] | 325.3 | 730 | 167.1 | 2380 |  | 
7 | COC1CCN(c2cc(C(=O)NS(=O)(=O)CCNC(=O)c3ccccc3C(=O)O)nc3c2c(C2CCC2)nn3-c2ccccc2)CC1 [Compound 174, 2-[(2-{[3-cyclobutyl-4-(4-methoxypiperidin-1-yl)-1-phenyl-1H-pyrazolo[3,4-b]pyridine-6-carbonyl]sulfamoyl}ethyl)carbamoyl]benzoic acid] | 545 | 468 | 347.9 | 754 |  | 
8 | CS(=O)(=O)NC(=O)c1cc(N2CCC(N3CCOCC3)CC2)c2c(C3CCC3)nn(-c3ccnc(C4CCOCC4)c3)c2n1 [Compound 490, 3-cyclobutyl-N-(methanesulfonyl)-4-[4-(morpholin-4-yl)piperidin-1-yl]-1-[2-(oxan-4-yl)pyridin-4-yl]-1H-pyrazolo[3,4-b]pyridine-6-carboxamide] | 303.9 | 693 | 139.7 | 1550 |  | 
9 | CC(C)OC1CCN(c2cc(C(=O)NS(C)(=O)=O)nc3c2c(C2CCC2)nn3-c2ccccc2)CC1 [Compound 151, 3-cyclobutyl-N-(methanesulfonyl)-1-phenyl-4-{4-[(propan-2-yl)oxy]piperidin-1-yl}-1H-pyrazolo[3,4-b]pyridine-6-carboxamide] | 387.15 | 109 | 228.95 | 347 |  | 
10 | Cc1nn(-c2cccc(C(F)(F)F)c2)c2nc(C(=O)NS(C)(=O)=O)cc(-c3ccc(N(C)C)cc3)c12 [Compound 26, 4-[4-(dimethylamino)phenyl]-N-(methanesulfonyl)-3-methyl-1-[3-(trifluoromethyl)phenyl]-1H-pyrazolo[3,4-b]pyridine-6-carboxamide] | 449.7 | 1550 | 202.25 | 1850 |  | 
11 | CC(=O)N1CCCN(S(=O)(=O)NC(=O)c2cc(OCC3CCOCC3)c3c(C4CCC4)nn(-c4ccccc4)c3n2)CC1 [Compound 357, N-(4-acetyl-1,4-diazepane-1-sulfonyl)-3-cyclobutyl-4-[(oxan-4-yl)methoxy]-1-phenyl-1H-pyrazolo[3,4-b]pyridine-6-carboxamide] | 229.8 | 130 | 72.83 | 115 |  | 
12 | COCCN1CCN(C2CCN(c3cc(C(=O)NS(=O)(=O)N(C)C)nc4c3c(C3CCC3)nn4-c3ccc(F)cc3)CC2)CC1 [Compound 607, 3-cyclobutyl-N-(dimethylsulfamoyl)-1-(4-fluorophenyl)-4-{4-[4-(2-methoxyethyl)piperazin-1-yl]piperidin-1-yl}-1H-pyrazolo[3,4-b]pyridine-6-carboxamide] | 484.3 | 667 | 272.6 | 342 |  | 
13 | CCS(=O)(=O)NC(=O)c1cc(N2CCC(CN3CCOCC3)CC2)c2c(C3CCC3)nn(-c3ccc(F)cc3)c2n1 [Compound 494, 3-cyclobutyl-N-(ethanesulfonyl)-1-(4-fluorophenyl)-4-{4-[(morpholin-4-yl)methyl]piperidin-1-yl}-1H-pyrazolo[3,4-b]pyridine-6-carboxamide] | 551.8 | 37.1 | 315.4 | 110 |  | 
14 | COCCN(C)c1ccc(-c2cc(C(=O)NS(C)(=O)=O)nc3c2c(C(C)C)nn3-c2cccc(C(F)(F)F)c2)cc1 [Compound 132, N-(methanesulfonyl)-4-{4-[(2-methoxyethyl)(methyl)amino]phenyl}-3-(propan-2-yl)-1-[3-(trifluoromethyl)phenyl]-1H-pyrazolo[3,4-b]pyridine-6-carboxamide] | 417.2 | 882 | 244 | 1270 |  | 
15 | COC[C@H]1CCCN1S(=O)(=O)NC(=O)c1cc(N2CCC(N3CCOCC3)CC2)c2c(C3CCC3)nn(-c3ccc(F)cc3)c2n1 [Compound 577, 3-cyclobutyl-1-(4-fluorophenyl)-N-[(2R)-2-(methoxymethyl)pyrrolidine-1-sulfonyl]-4-[4-(morpholin-4-yl)piperidin-1-yl]-1H-pyrazolo[3,4-b]pyridine-6-carboxamide] | 379.3 | 105 | 187.15 | 257 |  | 
16 | O=C(NS(=O)(=O)CCCN1CCOCC1)c1cc(N2CCC[C@@H](CO)C2)c2c(C3CCC3)nn(-c3ccccc3)c2n1 [Compound 350, 3-cyclobutyl-4-[(3R)-3-(hydroxymethyl)piperidin-1-yl]-N-[3-(morpholin-4-yl)propane-1-sulfonyl]-1-phenyl-1H-pyrazolo[3,4-b]pyridine-6-carboxamide] | 274.6 |  | 104.21 |  | 287 | 357
17 | O=C(NS(=O)(=O)C1CC1)c1cc(N2CCC(N3CCN(C4CC4)CC3)CC2)c2c(C3CCC3)nn(-c3ccccc3)c2n1 [Compound 550, 3-cyclobutyl-N-(cyclopropanesulfonyl)-4-[4-(4-cyclopropylpiperazin-1-yl)piperidin-1-yl]-1-phenyl-1H-pyrazolo[3,4-b]pyridine-6-carboxamide] | 605.45 | 173 | 347 | 361 |  | 
18 | CS(=O)(=O)NC(=O)c1cc(-c2ccc(N3CCC(C#N)CC3)nc2)c2c(OC3CCNCC3)nn(-c3ccccc3)c2n1 [Compound 258, 4-[6-(4-cyanopiperidin-1-yl)pyridin-3-yl]-N-(methanesulfonyl)-1-phenyl-3-[(piperidin-4-yl)oxy]-1H-pyrazolo[3,4-b]pyridine-6-carboxamide] | 127.1 | > 10000 | 8.829 | > 10000 |  | 
19 | CC(C)c1nn(-c2ccc(F)cc2F)c2nc(C(=O)NS(C)(=O)=O)cc(-c3ccc(N4CCC(C#N)CC4)cc3)c12 [Compound 141, 4-[4-(4-cyanopiperidin-1-yl)phenyl]-1-(2,4-difluorophenyl)-N-(methanesulfonyl)-3-(propan-2-yl)-1H-pyrazolo[3,4-b]pyridine-6-carboxamide] | 414.63 | 221 | 233.07 | 287 |  | 
20 | O=C(NS(=O)(=O)C1CCOC1)c1cc(N2CCC(N3CCCCC3)CC2)c2c(C3CCC3)nn(-c3ccc(F)cc3)c2n1 (centres unmarked) [Compound 451, 4-([1,4'-bipiperidin]-1'-yl)-3-cyclobutyl-1-(4-fluorophenyl)-N-(oxolane-3-sulfonyl)-1H-pyrazolo[3,4-b]pyridine-6-carboxamide] | 391 | 2100 | 184.1 | 1700 |  | 
